# Test results taken from ChEMBL document CHEMBL5543108, “Structure-based design and synthesis of BML284 derivatives: A novel class of colchicine-site noncovalent tubulin degradation agents” (Eur J Med Chem, 2024).
# Key:
# A2780S [1] = experiment: Antitumor activity against human A2780S cells xenografted in mouse model assessed as tumor growth inhibition at 20 mg/kg, iv administered every two days for 12 days relative to control; assay type: functional; settings: 288 h, time 12 day, read-out: TGI
# MCF7 = experiment: cells; settings: Homo sapiens, MCF7, 72 h
# Description: Antiproliferative activity against human MCF7 cells assessed as reduction in cell viability measured after 72 hrs
# A2780S [2] = experiment: Induction of cell cycle arrest in human A2780S cells assessed as accumulation of cells at G0/G1 phase at 100 nM measured after 24 hrs by propidium iodide staining based analysis (reference value: 51.71%); assay type: functional
# [3] = Tmax in male Sprague-Dawley rat at 10 mg/kg, po; assay type: ADME, organism-based; settings: in vivo
# A2780S [4] = experiment: Induction of cell cycle arrest in human A2780S cells assessed as accumulation of cells at G0/G1 phase at 3 nM measured after 24 hrs by propidium iodide staining based analysis (reference value: 51.71%); assay type: functional
# Tubulin (Homo sapiens) = Tubulin (Homo sapiens) (UniProt P68371+Q9H4B7+P0DPH7+P68366+Q13509+Q71U36+P04350+Q3ZCM7+P07437+P68363+Q9BQE3+Q6PEY2+Q13885+Q9BVA1+Q9BUF5); experiment: Inhibition of tubulin polymerization (unknown origin) preincubated for 5 mins with compound followed by GTP addition and measured upto 40 mins; assay type: protein-complex assay; settings: dose 5-10 µM, time <= 45.0 min
# [5] = Selectivity ratio of IC50 for paclitaxel resistant human A549/Taxol cells to IC50 for human A549
# [6] = Volume of distribution at steady state in male Sprague-Dawley rat at 10 mg/kg, iv; assay type: ADME, organism-based; settings: in vivo, read-out: Vdss
# NCI/ADR-RES = experiment: Antiproliferative activity against human MCF7ADR cells assessed as reduction in cell viability measured after 72 hrs; assay type: functional, cell-based
# [7] = Selectivity ratio of IC50 for human A2780T cells to IC50 for human A2780S
# A2780S [8] = experiment: Antiproliferative activity against human A2780S cells assessed as reduction in cell viability measured after 72 hrs; assay type: functional, cell-based
# [9] = Toxicity in mouse xenografted with human A2780T cells assessed as side effects at 10 to 30 mg/kg, iv measured upto 18 days; assay type: organism-based, A2780/Taxol; settings: in vivo, 432 h, dose 10-30 mg/kg, time < 18 day
# [10] = Tmax in male Sprague-Dawley rat at 10 mg/kg, iv; assay type: ADME, organism-based; settings: in vivo
# HCT-116 = experiment: cells; settings: Homo sapiens, HCT-116, 72 h
# Description: Antiproliferative activity against human HCT-116 cells assessed as reduction in cell viability measured after 72 hrs
# [11] = Cmax in male Sprague-Dawley rat at 10 mg/kg, iv; assay type: ADME, organism-based; settings: in vivo
# A2780S [12] = experiment: Antitumor activity against human A2780S cells xenografted in mouse model assessed as tumor growth inhibition at 10 mg/kg, iv administered every two days for 12 days relative to control; assay type: functional; settings: 288 h, time 12 day, read-out: TGI
# A2780/Taxol [13] = experiment: Induction of cell cycle arrest in human A2780T cells assessed as accumulation of cells at S phase at 3 nM measured after 24 hrs by propidium iodide staining based analysis (reference value: 29.73%); assay type: functional
# A2780S [14] = experiment: Induction of cell cycle arrest in human A2780S cells assessed as accumulation of cells at G2/M phase at 3 nM measured after 24 hrs by propidium iodide staining based analysis (reference value: 18.43%); assay type: functional
# A2780/Taxol [15] = experiment: Induction of apoptosis in human A2780T cells assessed as total number of late apoptotic cells at 300 nM measured after 48 hrs by Annexin-V-FITC and PI staining based flow cytometry analysis (reference value: 3.42%); assay type: functional
# A2780S [16] = experiment: Induction of cell cycle arrest in human A2780S cells assessed as accumulation of cells at G0/G1 phase at 300 nM measured after 24 hrs by propidium iodide staining based analysis (reference value: 51.71%); assay type: functional
# A549 = experiment: Antiproliferative activity against human A549 cells assessed as reduction in cell viability measured after 72 hrs; assay type: functional, cell-based; settings: A549, 72 h
# [17] = Toxicity in mouse xenografted with human A2780S cells assessed as side effects at 10 to 30 mg/kg, iv measured upto 12 days; assay type: organism-based; settings: in vivo, 288 h, dose 10-30 mg/kg, time < 12 day
# A2780S [18] = experiment: Induction of cell cycle arrest in human A2780S cells assessed as accumulation of cells at G2/M phase at 10 nM measured after 24 hrs by propidium iodide staining based analysis (reference value: 18.43%); assay type: functional
# A2780/Taxol [19] = experiment: Induction of cell cycle arrest in human A2780T cells assessed as accumulation of cells at S phase at 100 nM measured after 24 hrs by propidium iodide staining based analysis (reference value: 29.73%); assay type: functional
# A2780S [20] = experiment: Induction of cell cycle arrest in human A2780S cells assessed as accumulation of cells at G2/M phase at 100 nM measured after 24 hrs by propidium iodide staining based analysis (reference value: 18.43%); assay type: functional
# A2780/Taxol [21] = experiment: Induction of cell cycle arrest in human A2780T cells assessed as accumulation of cells at G2/M phase at 100 nM measured after 24 hrs by propidium iodide staining based analysis (reference value: 24.13%); assay type: functional
# A549/TR = experiment: Antiproliferative activity against paclitaxel resistant human A549T cells assessed as reduction in cell viability measured after 72 hrs; assay type: functional, cell-based
# A2780S [22] = experiment: Induction of cell cycle arrest in human A2780S cells assessed as accumulation of cells at S phase at 3 nM measured after 24 hrs by propidium iodide staining based analysis (reference value: 29.85%); assay type: functional
# [23] = Toxicity in mouse xenografted with human A2780S cells assessed as effect on body weight at 10 to 30 mg/kg, iv measured upto 12 days; assay type: organism-based; settings: in vivo, 288 h, dose 10-30 mg/kg, time < 12 day
# [24] = Clearance in male Sprague-Dawley rat at 10 mg/kg, iv; assay type: ADME, organism-based; settings: in vivo
# [25] = Half life in male Sprague-Dawley rat at 10 mg/kg, po; assay type: ADME, organism-based; settings: in vivo
# [26] = AUC (0 to t) in male Sprague-Dawley rat at 10 mg/kg, iv; assay type: ADME, organism-based; settings: in vivo
# A2780/Taxol [27] = experiment: Induction of apoptosis in human A2780T cells assessed as total number of late apoptotic cells at 100 nM measured after 48 hrs by Annexin-V-FITC and PI staining based flow cytometry analysis (reference value: 3.42%); assay type: functional
# A2780/Taxol [28] = experiment: Induction of cell cycle arrest in human A2780T cells assessed as accumulation of cells at S phase at 30 nM measured after 24 hrs by propidium iodide staining based analysis (reference value: 29.73%); assay type: functional
# A2780S [29] = experiment: Induction of apoptosis in human A2780S cells assessed as total number of late apoptotic cells at 30 nM measured after 48 hrs by Annexin-V-FITC and PI staining based flow cytometry analysis (reference value: 3.42%); assay type: functional
# A2780S [30] = experiment: Antitumor activity against human A2780S cells xenografted in mouse model assessed as tumor growth inhibition at 30 mg/kg, iv administered every two days for 12 days relative to control; assay type: functional; settings: 288 h, time 12 day, read-out: TGI
# HUVEC = experiment: Antivascular activity against human HUVEC cells assessed as inhibition of capillary tube formation at 40 nM incubated for 6 hrs by microscopy based analysis relative to control; assay type: functional; design: scale not given: the % may be the effect or the level left
# A2780/Taxol [31] = experiment: Induction of cell cycle arrest in human A2780T cells assessed as accumulation of cells at G0/G1 phase at 3 nM measured after 24 hrs by propidium iodide staining based analysis (reference value: 46.141%); assay type: functional
smiles,measurement,setting,value
COc1cccc(-c2cc(NCc3ccc4[nH]ccc4c3)nc(N)n2)c1,inhibition in vivo at 20 mg/kg,A2780S [1],63.6%
same,IC50,MCF7,20 nM
same,Activity,A2780S [2],20.38%
same,Tmax,[3],3.67 h
same,Activity,A2780S [4],47.48%
same,inhibition,Tubulin (Homo sapiens),Dose-Dependent Effect
same,Ratio IC50,[5],1.1
same,Vd,[6],7.43 L/kg
same,IC50,NCI/ADR-RES,32 nM
same,Ratio IC50,[7],0.89
same,IC50,A2780S [8],18 nM
same,Activity,[9],Toxic
same,Tmax,[10],4.8 min
same,IC50,HCT-116,30 nM
same,Cmax,[11],2890 ng/mL
same,inhibition in vivo at 10 mg/kg,A2780S [12],45.3%
same,Activity,A2780/Taxol [13],29.77%
same,Activity,A2780S [14],23.17%
same,Activity,A2780/Taxol [15],15.57%
same,Activity,A2780S [16],1.54%
same,IC50,A549,34 nM
same,Activity,[17],Toxic
same,Activity,A2780S [18],22.16%
same,Activity,A2780/Taxol [19],9.12%
same,Activity,A2780S [20],42.46%
same,Activity,A2780/Taxol [21],83.16%
same,IC50,A549/TR,37 nM
same,Activity,A2780S [22],29.35%
same,Activity,[23],Non-Toxic
same,clearance,[24],42.5 mL/min/kg
same,half-life,[25],5.94 h
same,AUC(0-t),[26],4270 ng·h/mL
same,Activity,A2780/Taxol [27],14.43%
same,Activity,A2780/Taxol [28],35.74%
same,Activity,A2780S [29],5.29%
same,inhibition in vivo at 30 mg/kg,A2780S [30],79.4%
same,Activity,HUVEC,100%
same,Activity,A2780/Taxol [31],50.87%
